The values that follow come from patent US20170266204A1 (ARNO THERAPEUTICS, INC., priority 2016, published 2017).

The nature of one data set: in vitro. Particulars: for P450 enzyme catalyzing the metabolism: microsomes; for Vmax for metabolism: Table 1 Vmax 1. As to the method: Mohutsky M, Wrighton S, Ring B. In vitro metabolism: subcellular fractions. In: Pearson P, Wienkers L, editors. Handbook of drug metabolism. New York: Informa Healthcare; 2009. pp. 445-464. […] The incubation was conducted at various time points 0-60 min at 37° C. At the end of incubation, the reactions were quenched, processed, and analyzed by LC-MS/MS.

The target of data set [1] is T1, progesterone receptor (PR) (Homo sapiens, UniProt P06401).
T1 construct: expressed in transfected cells; host or cells: 293T (human embryonic kidney cells) and WMPY (prostatic stromal cell line)
T1 sequence (P06401 1-933): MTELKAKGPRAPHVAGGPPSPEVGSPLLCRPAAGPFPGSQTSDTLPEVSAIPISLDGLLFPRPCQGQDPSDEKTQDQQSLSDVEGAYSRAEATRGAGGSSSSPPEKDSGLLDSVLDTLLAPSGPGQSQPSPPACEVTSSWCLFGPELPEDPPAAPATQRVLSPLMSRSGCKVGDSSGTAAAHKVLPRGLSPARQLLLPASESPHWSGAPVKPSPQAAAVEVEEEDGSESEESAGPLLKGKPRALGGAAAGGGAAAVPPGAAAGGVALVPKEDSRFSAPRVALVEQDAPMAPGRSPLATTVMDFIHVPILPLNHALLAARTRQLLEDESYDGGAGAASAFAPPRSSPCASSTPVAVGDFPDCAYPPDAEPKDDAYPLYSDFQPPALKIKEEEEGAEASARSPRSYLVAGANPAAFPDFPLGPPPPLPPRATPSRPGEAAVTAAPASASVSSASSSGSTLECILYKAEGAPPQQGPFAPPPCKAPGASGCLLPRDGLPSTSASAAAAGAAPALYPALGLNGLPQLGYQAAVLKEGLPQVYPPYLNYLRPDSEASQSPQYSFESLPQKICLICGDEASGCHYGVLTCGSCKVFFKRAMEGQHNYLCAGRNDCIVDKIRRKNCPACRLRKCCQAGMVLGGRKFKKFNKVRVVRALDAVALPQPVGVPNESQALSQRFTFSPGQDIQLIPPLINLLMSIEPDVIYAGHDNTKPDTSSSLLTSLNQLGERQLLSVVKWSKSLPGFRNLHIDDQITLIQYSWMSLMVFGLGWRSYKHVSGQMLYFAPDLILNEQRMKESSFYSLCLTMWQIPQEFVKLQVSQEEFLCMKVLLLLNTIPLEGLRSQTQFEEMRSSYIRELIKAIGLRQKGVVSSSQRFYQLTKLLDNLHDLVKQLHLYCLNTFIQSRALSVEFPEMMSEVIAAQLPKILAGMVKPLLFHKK
Briefly: PRE-luciferase reporter assay in 293T and WMPY cells transfected with PR. Particulars: 100 nM. The data set is classed as cell-based. On the procedure:
293T and WMPY cells were transfected with progesterone receptor (PR) and PRE-luciferase reporter. […] Experiments were repeated in triplicate. […] Because of the metabolic stability of M1 compared to ONA, a blood circulation of 100 nM M1 can be achieved after dosing M1 at 1 mg.
Background: A reporter such as luciferase makes a cellular process visible.

The nature of data set [2]: Concentration in blood circulation after dosing.
Data set [3] is classed as in vitro ADME, human. The text has this: In: Pearson P, Wienkers L, editors. Handbook of drug metabolism. New York: Informa Healthcare; 2009. pp. 445-464.
Data set [4] in a line: Metabolite profile by LC-MS in pooled urine of chimeric mice with humanized liver after repeated oral onapristone. The data set is classed as in vivo. Conditions: onapristone 30 mg/kg/day, D11. On the procedure: Metabolites were identified using liquid chromatography-mass spectrometry (LC-MS) and mass spectroscopy on pooled plasma, urine, and liver samples. Twenty-seven metabolites were identified in urine samples across dose and sampling time (e.g., 0-24 hours of dosing for each time point).
Mice with humanized livers were generated as described by Meuleman et al., Hepatology 2005, 41 (4):847-856. This humanized liver model is routinely used to assess the metabolism and toxicities of drugs. Kamimura H, Nakada N, Suzuki K, et al. Assessment of chimeric mice with humanized liver as a tool for predicting circulating human metabolites. Drug Metab Pharmacokinet 2010;25(3):223-235. Two weeks following birth, mice were transplanted with primary hepatocytes isolated from the liver of a donor (purchased from BD Genetest). All animals were housed and kept under standard animal protocols. Animals also were observed during the experiment for signs of illness, abnormal behavior and appearance, and any sign of toxicity, or mortality. Animals were treated orally by gavage with 0, 10, and 30 mg/kg of drug once a day up to 31 days. At the end of treatments, blood samples, urine, and liver were collected and processed for LC-MS/MS metabolite identification and profiling. […]

On to `CNc1ccc([C@H]2C[C@]3(C)[C@@H](CC[C@]3(O)CCCO)[C@@H]3CCC4=CC(=O)CCC4=C32)cc1` [Metabolite M1, (8S, 11R,13R,14S,17S)-17-hydroxy-17-(3-hydroxypropyl)-13-methyl-11-(4-(methylamino)phenyl)-6,7,8,11,12,13,14,15,16,17-decahydro-1H-cyclopenta[a]phenanthren-3(2H)-one], for which, in the data set “in vitro” (both, human), the “P450 enzyme catalyzing the metabolism” value is “CYP3A and CYP2C”. Moreover, the “Vmax 1” value in the data set “in vitro” (female human liver microsomes) is 106 pmol/min/mg; in “in vitro” (male human liver microsomes), 72 pmol/min/mg. Moreover, the “Vmax 2” value in the data set “in vitro” (female human liver microsomes) is given as 738 pmol/min/mg; in “in vitro” (male human liver microsomes), 748 pmol/min/mg. The Vmax for metabolism in “in vitro” (females) was 106 pmol/min/mg microsomal protein; in “in vitro” (males) it was 72 pmol/min/mg microsomal protein. In addition, the Km was determined as 0.75 µM in “in vitro” (human, Km 1); 175 µM in the data set “in vitro” (human, Km 2); 0.96 µM in the data set “in vitro” (male, human, Km 1); 129 µM in the data set “in vitro” (male, human, Km 2). Moreover, the “inhibition of PR transcriptional activity” value in data set [1] is given as “fully inhibit”. Besides, the “concentration that can be achieved in blood circulation” value in data set [2] (after dosing M1 at 1 mg, inferred from metabolic stability of M1) was 100 nM. The “concentration achieved in blood circulation” value in data set [2] (after dosing onapristone at 10 mg QD) amounted to 10 nM.
For `CN(C)c1ccc([C@H]2C[C@]3(C)[C@@H](CC[C@]3(O)CCCO)[C@@H]3CCC4=CC(=O)CCC4=C32)cc1` [onapristone, Onapristone, reference compound], the “Vmax 1” value came to 1517 pmol/min/mg in “in vitro” (female human liver microsomes) and 1292 pmol/min/mg in the data set “in vitro” (male human liver microsomes). Moreover, the “Vmax 2” value worked out at 8715 pmol/min/mg in the data set “in vitro” (female human liver microsomes) and 7213 pmol/min/mg in the data set “in vitro” (male human liver microsomes). For the same compound, the Vmax for metabolism in the data set “in vitro” (females) is 1517 pmol/min/mg microsomal protein; in “in vitro” (males), 1292 pmol/min/mg microsomal protein. In addition, in “in vitro”, the “P450 enzyme catalyzing the metabolism” value is “CYP3A”. The “number of metabolites formed in vitro” value in data set [3] is given as “nine”. Further, the “metabolite detected by LC-MS in urine” value in data set [4] is given as “Ls”. The “inhibition of PR transcriptional activity” value in data set [1] is listed as “fully inhibit”.

The Km is the concentration of substrate that gives half-maximal velocity.
